These results are taken from US9364449B2, “Peptoid and synthetic oligomers, pharmaceutical compositions and methods of using same” (New York University, priority 2011, dated 2016).

Entries after “also recorded” stand apart in the source; their conditions may differ. Non-standard residues stand in square brackets, D forms with d. Residues, ends and D or L forms follow the SMILES beside them. Sar = CNCC(=O)O

Assay [1] deals with primary hippocampal neurons. The assay is described as follows: Accumulation of aggregated FITC labeled Aβ1-40 on the surface of neurons. The format is cell-based, C57bL/6 mice. The following applies: 18 DIV neurons, FITC labeled Aβ1-40, treated with compound. The protocol:
P0-P1 pups of C57bL/6 mice were killed by decapitation and brains were removed in aseptic conditions. To establish cultures of primary hippocampal neurons the hippocampi were dissected from both hemispheres under AmScope stereoscopic microscope (AmScope, Chino, Calif.). Fragments of tissue were placed in the ice-cold Ca^2+ and Mg^2+ free Hank's balanced salt solution (HBSS) and gently cut further into fine pieces which were then treated with 0.05% trypsin in HBSS for 10 min at 37° C. to obtain cell suspension. Following addition of 0.1% type-I-S trypsin inhibitor and 0.05% DNase I, the cell suspension was centrifuged at 500×g for 30 sec. […] The cell suspension was then filtered through a 70-μm mesh, and the cells were counted using hematocytometer (Hausser Scientific, Horsham, Pa.). […]
Coverslip inserts covered by the primary hippocampal neuro^ns were immersed three times in PBS at 37° C., and then in 80% ice-cold methanol for 10 min to fix the neurons, and washed again three times in PBS. […] Biotinylated secondary antibodies (1:1,000) followed by Cy3 conjugated streptavidine (1:500) were used to detected binding of primary Abs to their antigens. […] Immunostained neurons were analyzed under 80i Nikon fluorescent microscope (Nikon Corp. Tokyo, Japan). […]

The subject of assay [2] is primary hippocampal neurons. The experiment in a line: Intraneuronal Aβ accumulation (Western blot of neuronal lysates, densitometry). The class given is cell-based, C57bL/6 mice. The following applies: 10 μM Aβ40 with or without compound, p<0.01. The protocol:
P0-P1 pups of C57bL/6 mice were killed by decapitation and brains were removed in aseptic conditions. To establish cultures of primary hippocampal neurons the hippocampi were dissected from both hemispheres under AmScope stereoscopic microscope (AmScope, Chino, Calif.). Fragments of tissue were placed in the ice-cold Ca^2+ and Mg^2+ free Hank's balanced salt solution (HBSS) and gently cut further into fine pieces which were then treated with 0.05% trypsin in HBSS for 10 min at 37° C. to obtain cell suspension. Following addition of 0.1% type-I-S trypsin inhibitor and 0.05% DNase I, the cell suspension was centrifuged at 500×g for 30 sec. The resulting pellet was triturated, centrifuged again at 500×g for 5 min and resuspended in the minimal essential medium (MEM) supplemented with heat-inactivated 10% fetal bovine serum (FBS), 0.5 mM glutamine, streptomycin (50 μg/ml) and penicillin (50 U/ml). The cell suspension was then filtered through a 70-μm mesh, and the cells were counted using hematocytometer (Hausser Scientific, Horsham, Pa.). The cells were seeded on poly-L-lysine coated 12-well plates. For biochemical analysis 5×10^5 cells were seeded directly on the bottom of each well whereas for immunohistochemistry a removable, poly-L-lysine coated round coverslip was placed on the bottom of the well and the number of seeded cells was reduced to 1×10^5 per well. […]
(A western blot detects proteins with antibodies after separation by electrophoresis.)

Assay [3] addresses T1, Aβ1-40 (Homo sapiens, UniProt P05067).
T1 construct: made in house; host or cells: chemical solid-phase peptide synthesis (L-amino acids), RP-HPLC purified
The assay is described as follows: Oligomerization assay (glutaraldehyde cross-linking, Western blot, densitometry). The class given is biochemical. The following applies: 100 μM Aβ1-40 with 10 μM compound (10:1 Aβ:inhibitor), 4° C., 24 h. How it is done: Autoradiography films were converted into 8 bit grayscale digital files using a Epson Perfection 4990 scanner (Epson America; Long Beach, Calif.) and Adobe Photoshop CS4 (Adobe Systems; San Jose, Calif.) and saved in a TIF format with a resolution of 600 dpi. Densitometric analysis of Western and dot-blot signals was performed using NIH Image J software v 1.42 (Bethesda, Md.) as previously described (Pankiewicz et al., 2006. Eur. J. Neurosci. 23, 2635-47; Sadowski et al., 2009. Neurobiol Dis; 34, 267-78).
The rationale is that Aβ oligomeric assemblies are particularly toxic to synaptic components and impair neurotransmission. […] GKLVFNmgA (SEQ ID NO: 310:1 Aβ:inhibitor ratio). Prior to electrophoresis, glutaraldehyde (0.4 mM final concentration) was added to prevent disassembly of complexes. Samples were immediately subjected to electrophoresis in non-reducing condition, Western-transfer, and detection with a mixture of 4G8 and 6E10 anti-Aβ Mabs.

T1 sequence (P05067 672-711): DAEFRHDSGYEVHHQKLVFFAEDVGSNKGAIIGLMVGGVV

With `CC(C)CC(NC(=O)C(CCCCN)NC(=O)CN)C(=O)NC(C(=O)NC(Cc1ccccc1)C(=O)N(C)CC(=O)NC(C)C(N)=O)C(C)C` (stereo not shown) [GKLVFNmgA] (H-GKLVF[Sar]A-NH2; configuration not given here), the “accumulation of aggregated Aβ1-40 on the surface of neurons” value in assay [1] is listed as “Reduction in the number of AB aggregates; also recorded: Reduced accumulation”. Also, in assay [2] (6 hr), the “less Aβ accumulated in neurons after six hr of exposure” value is 29.8%. Also, the “less Aβ accumulated in neurons after 24 hr of exposure” value in assay [2] (24 hr) worked out at 49.3%. For the same molecule, the “reduction of the amount of Aβ oligomers (densitometric analysis)” value in assay [3] was determined as 61.3%.
